Patent publication US9475841B2, “Melanoma antigen peptide and uses thereof” (INSERM (INSTITUT NATIONAL DE LA SANTE ET DE LA RECHERCHE …, priority 2012, dated 2016)

How the values were obtained:
Assay in all cases: Cytokine profile of CD4 T cell clone stimulated with cognate peptide (intracellular staining)
Format in all cases: cell-based, human
Conditions in all cases: cognate peptide 10 μM, 5 hours
[1] = test system: CD4 T cell clone 9C12-DQβ*0202
Description: (§1) Lymphocytes were stimulated for 5 hours in the presence of brefeldin A (10 μg/mL) either with peptide alone (10 μM) in an autopresentation assay or with B-EBV or HLA-class II expressing melanoma cells pulsed 2 hours with the cognate peptide, at a ratio 1:2. In some experiments, blocking mAb against HLA-DP (clone B7.21 from Dr Charron, UMR940, Paris), HLA-DQ (clone SPVL3, Beckman Coulter) or HLA-DR (clone L243, BD Biosciences) were added at a concentration of 12.5 μg/ml. Cells were then stained with APC-conjugated anti-CD4 mAb, fixed with 4% paraformaldehyde, labeled with PE-conjugated anti-cytokine mAb and analyzed by flow cytometry.
(§2) We also documented the T helper profile of each T cell clone, by stimulating the CD4 T cell clones with the cognate peptide, and analyzing cytokine production. All the clones expressed Th1 cytokines (TNFα, IFNγ, IL2 and GM-CSF). On the contrary, these clones differ in their expression of Th2 cytokines. Indeed, the two DQ2 restricted T cell clones (9C12 and 4E2) and the DR1 restricted one (5F9) also strongly express two Th2 cytokines (IL4, and IL13), whereas the DR11-restricted T cell clone only weakly expressed IL4 (Table IV). None of the CD4 T cell expresses IL10 or IL5 at a significant level.

[2] = test system: CD4 T cell clone 1A5-DRβ1*1101
Description: as §1, §2

[3] = test system: CD4 T cell clone 5F9-DRβ1*0101
Description: as §1, §2

## SCVGYPDEATSREQFLPSEG (SCVGYPDEATSREQFLPSEC) [MELOE-12-21]
[1]
  Cytokine profile: GM-CSF: GM-CSF^high
  Cytokine profile: IFN: IFN^high
  Cytokine profile: IL2: IL2^high
  Cytokine profile: IL4: IL4^high
  Cytokine profile: IL5: IL5^high
  Cytokine profile: IL10: IL10^neg
  Cytokine profile: IL13: IL13^high
  Cytokine profile: TNF: TNF^high

## TSREQFLPSEGAACPPWHPS [MELOE-111-30]
[2]
  Cytokine profile: GM-CSF: GM-CSF^high
  Cytokine profile: IFN: IFN^high
  Cytokine profile: IL2: IL2^high
  Cytokine profile: IL4: IL4^low
  Cytokine profile: IL5: IL5^neg
  Cytokine profile: IL10: IL10^neg
  Cytokine profile: IL13: IL13^neg
  Cytokine profile: TNF: TNF^high
[3]
  Cytokine profile: GM-CSF: GM-CSF^high
  Cytokine profile: IFN: IFN^high
  Cytokine profile: IL2: IL2^low
  Cytokine profile: IL4: IL4^high
  Cytokine profile: IL5: IL5^neg
  Cytokine profile: IL10: IL10^neg
  Cytokine profile: IL13: IL13^high
  Cytokine profile: TNF: TNF^high
